Consider 6 molecules from patent US9693996B1, “Chlorophyll c containing degranulation suppressor” (MARUHA NICHIRO CORPORATION, priority 2011, dated 2017).

The subject of series [1] is rat basophile derived cell line RBL-2H3. The experiment in a line: Test for evaluating degranulation suppressing activity (β-hexosaminidase release). It counts as cell-based. Conditions: for degranulation suppressing activity (percent degranulation): RBL-2H3 sensitized with anti DNP-IgE, stimulated with DNP-albumin, control group taken as 100%. The procedure:
First, the rat basophile derived cell line RBL-2H3 was diluted with a DMEM medium (product of SIGMA) containing 10% fetal bovine serum (hereinafter referred to as FBS) to give a density of 2.5×10^5 cells/ml, dispensed on a 24-well culture plate in a volume of 1 ml/well, and cultured overnight at 37° C. under conditions of 5% CO2 and 100% humidity. After removing the culture supernatant, the cell surfaces were washed with 1 ml/well of a phosphate buffer solution (hereinafter referred to as PBS) and an anti DNP-IgE solution prepared by diluting mouse monoclonal anti-dinitrophenol (product of SIGMA) with a DMEM medium to give a concentration of 50 ng/ml was added in a volume of 500 μl/well, followed by incubation for 2 hours at 37° C. under conditions of 5% CO2 and 100% humidity. After the end of incubation, the anti DNP-IgE solution was removed and washing was done using 1.5 ml/well of a buffer solution containing 137 mM NaCl (product of nacalai tesque), 2.7 mM KCl (JUNSEI CHEMICAL), 1.8 Mm CaCl2.2H2O (JUNSEI CHEMICAL), 1 mM MgCl2. 6H2O (JUNSEI CHEMICAL), 5.6 mM glucose (Wako Pure Chemical Industries), 20 mM HEPES (Wako Pure Chemical Industries) and 0.1% BSA (the buffer solution being a modified Tyrode buffer which is hereinafter referred to as “MT buffer”); this procedure was repeated twice. Next, an MT buffer containing 0.5% of a chlorophyll, i.e., an authentic sample of chlorophyll a (product of DHI), an authentic sample of chlorophyll b (product of DHI), an authentic sample of chlorophyll c2 (product of DHI), or an authentic sample of chlorophyll d (purified from cyanobacteria adhering to surfaces of red algae, by referring to Non-Patent Documents 10 and 11, for example) was added in a volume of 490 μl/well and incubation was conducted for 10 minutes at 37° C. under conditions of 5% CO2 and 100% humidity. To a control group that would not undergo suppression of the degranulation reaction, an MT buffer containing 0.5% ethanol was added. After 10-min incubation, Albumin, dinitrophenyl (product of SIGMA) was added to give a concentration of 200 ng/ml and the mixture was stirred to homogeneity, followed by 30-min incubation at 37° C. under conditions of 5% CO2 and 100% humidity. After the end of incubation, the mixture was ice-cooled for 10 minutes to quench the reaction and 500 μl of the supernatant was recovered. To the cells from which the culture supernatant was recovered, Cell Lysate buffer (product of SIGMA) was added in a volume of 500 μl/well and thereafter an ultrasonic cell disrupter was used to form a homogeneous cell lysate which was recovered in a volume of 500 μl. The culture supernatant and the cell lysate were dispensed on a 96-well plate, each in a volume of 50 μl/well, and incubated at 37° C. for 5 minutes. After the end of incubation, an aqueous solution containing 100 mM citric acid and 3.3 mM p-nitrophenyl-2-acetoamido-2-deoxy-β-D-glucopyranoside (product of Wako Pure Chemical Industries) (the aqueous solution is hereinafter referred to as a “substrate solution”) was added in a volume of 100 μl/well and after thorough mixing, incubation was conducted at 37° C. for 25 minutes. After the end of incubation, an aqueous solution containing 2 M glycine (the aqueous solution is hereinafter referred to as a “reaction quencher”) was added in a volume of 100 μl/well and thorough mixing was conducted to quench the reaction; thereafter, a plate reader was used to measure the absorbance at 405 nm. Through this sequence of reactions, degranulation occurred and the activity of β-hexosaminidase contained in the granules was measured to calculate the proportion of granules released from the cells to the culture supernatant. […]

The test system is the same in series [2]. The experiment in a line: Test for evaluating percent cell survival (WST-1). It is filed as cell-based. The conditions noted are these: RBL-2H3, 40 min incubation. On the procedure: The rat basophile derived cell line RBL-2H3 diluted to the same concentration as in Example 1 was dispensed on a 96-well culture plate in a volume of 0.1 ml/well and cultured overnight at 37° C. under conditions of 5% CO2 and 100% humidity. After removing the culture supernatant, the cell surfaces were washed with 1 ml/well of PBS and then an MT buffer containing an authentic sample of chlorophyll c2 at the same concentrations by dry weight as in Example 1 was added in a volume of 100 μl/well and incubation was conducted for 40 minutes at 37° C. under conditions of 5% CO2 and 100% humidity. To a control group that would not undergo suppression of the degranulation reaction, an MT buffer containing 0.5% ethanol was added. After 40-min incubation, WST-1 reagent (product of DOJINDO) was added in a volume of […] and the mixture was incubated for 30 minutes at 37° C. under conditions of 5% CO2 and 100% humidity. After the end of incubation, the mixture was left to stand at room temperature for 10 minutes and then the absorbance at 450 nm was measured to evaluate the percent cell survival.
Background: Tetrazolium assays rely on reduction of a dye to a coloured formazan, in cell work by metabolically active cells.

On to `C=Cc1c(C)c2cc3nc(c4c5[n-]c(cc6nc(cc1[n-]2)C(C)=C6CC)c(C)c5C(=O)[C@@H]4C(=O)OC)[C@@H](CCC(=O)OC/C=C(\C)CCC[C@H](C)CCC[C@H](C)CCCC(C)C)[C@@H]3C.[Mg+2]` [chlorophyll a, reference compound], for which the “degranulation suppressing activity (percent degranulation)” value in series [1] is recorded as “no degranulation suppressing activity at all”. As for `C=Cc1c(C)c2cc3nc(c4c5[n-]c(cc6nc(cc1[n-]2)C(C=O)=C6CC)c(C)c5C(=O)[C@@H]4C(=O)OC)[C@@H](CCC(=O)OC/C=C(\C)CCC[C@H](C)CCC[C@H](C)CCCC(C)C)[C@@H]3C.[Mg+2]` [chlorophyll b, reference compound], in series [1], the “degranulation suppressing activity (percent degranulation)” value was “no degranulation suppressing activity at all”. As to `C=Cc1c(C)c2[nH]c1=CC1=NC(=CC3=C(C)C4=C([O-])[C@H](C(=O)OC)C(=C5N=C(C=2)C(C)=C5/C=C/C(=O)[O-])C4=N3)C(CC)=C1C.[Mg+2]` [chlorophyll c1], in series [1], the “degranulation suppressing activity (percent degranulation)” value was “found to exhibit the degranulation suppressing activity”. Besides, the “percent cell survival (cytotoxicity)” value in series [2] is “neither the cell group treated with the authentic sample of chlorophyll c1 nor the cell group treated with the authentic sample of chlorophyll c3 was recognized to experience a drop in the percent cell survival”. On to `C=CC1=C(C)C2=NC1=CC1=C(C)C3=C([O-])[C@H](C(=O)OC)C(=C4N=C(C=c5[nH]c(c(C=C)c5C)=C2)C(C)=C4/C=C/C(=O)[O-])C3=N1.[Mg+2]` [chlorophyll c2], for which the “degranulation suppressing activity (percent degranulation)” value in series [1] is on record as “exhibit the degranulation suppressing activity in a dose-dependent manner”; in series [1] (listed as Fr. J) it was “found to have the evaluating degranulation suppressing activity”. The “concentration at which degranulation suppressing activity was already apparent” value in series [1] (by dry weight, RBL-2H3, FIG. 1) is reported as “about 0.05 μg/ml”. Moreover, the “percent cell survival (cytotoxicity)” value in series [2] is recorded as “none of the cell groups treated with the authentic sample of chlorophyll c2 experienced a drop in percent cell survival”. As to `C=CC1=C(C)C2=CC3=NC(=C4C5=NC(=C(C)C5=C([O-])[C@@H]4C(=O)OC)C=c4[nH]c(c(C(=O)OC)c4C=C)=CC1=N2)C(/C=C/C(=O)[O-])=C3C.[Mg+2]` [chlorophyll c3], in series [1], the “degranulation suppressing activity (percent degranulation)” value was “found to exhibit the degranulation suppressing activity”. Also, the “percent cell survival (cytotoxicity)” value in series [2] was “neither the cell group treated with the authentic sample of chlorophyll c1 nor the cell group treated with the authentic sample of chlorophyll c3 was recognized to experience a drop in the percent cell survival”. Take `CCC1=C(C)c2cc3[n-]c(cc4nc(c5c6[n-]c(cc1n2)c(C)c6C(=O)[C@@H]5C(=O)OC)[C@@H](CCC(=O)OC/C=C(\C)CCC[C@H](C)CCC[C@H](C)CCCC(C)C)[C@@H]4C)c(C)c3C=O.[Mg+2]` [chlorophyll d, reference compound]: the “degranulation suppressing activity (percent degranulation)” value in series [1] is on record as “no degranulation suppressing activity at all”.
